Results reported in ChEMBL document CHEMBL4033730, “Thiosemicarbazones as inhibitors of tyrosinase enzyme” (Bioorg Med Chem Lett, 2017).
Blank lines part the entries; values can stand above or below the compound they belong to. The source made the active and inactive calls. The calls are words filed in the database; no cut-off is given here.

How the values were obtained:
[1] = target: T1, Mushroom tyrosinase (Agaricus bisporus) (UniProt O42713+Q00024+C7FF04+C7FF05); experiment: Inhibition of Agaricus bisporus tyrosinase assessed as reduction in diphenolase activity by measuring L-DOPA oxidation at 1.6 mM after 0 to 70 mins by UV-visible specroscopy
[2] = target: T2, Mushroom tyrosinase (Agaricus bisporus, UniProt O42713+Q00024+C7FF04+C7FF05); experiment: Competitive inhibition of Agaricus bisporus tyrosinase assessed as reduction in diphenolase activity by measuring L-DOPA oxidation at 1.6 mM after 30 mins by Lineweaver-Burk plot
[3] = target: T2, Mushroom tyrosinase; experiment: Inhibition of Agaricus bisporus tyrosinase assessed as reduction in diphenolase activity by measuring L-DOPA oxidation after 30 mins
[4] = target: T1, Mushroom tyrosinase (Agaricus bisporus); experiment: Inhibition of Agaricus bisporus tyrosinase assessed as reduction in diphenolase activity by measuring L-DOPA oxidation at 2.67 mM after 30 mins
[5] = target: T1, Mushroom tyrosinase (Agaricus bisporus); experiment: Inhibition of Agaricus bisporus tyrosinase assessed as reduction in diphenolase activity by measuring L-DOPA oxidation at 1.33 mM after 30 mins
[6] = target: T1, Mushroom tyrosinase (Agaricus bisporus); experiment: Inhibition of Agaricus bisporus tyrosinase assessed as reduction in diphenolase activity by measuring L-DOPA oxidation at 2.22 mM after 30 mins
[7] = target: T1, Mushroom tyrosinase (Agaricus bisporus); experiment: Inhibition of Agaricus bisporus tyrosinase assessed as reduction in diphenolase activity by measuring L-DOPA oxidation at 0.89 mM after 30 mins
[8] = target: T1, Mushroom tyrosinase (Agaricus bisporus); experiment: Competitive inhibition of Agaricus bisporus tyrosinase assessed as reduction in diphenolase activity by measuring L-DOPA oxidation at 1.6 mM after 30 mins UV-visible specroscopy
[9] = target: T1, Mushroom tyrosinase (Agaricus bisporus); experiment: Inhibition of Agaricus bisporus tyrosinase assessed as reduction in diphenolase activity by measuring L-DOPA oxidation at 1.78 mM after 30 mins
[10] = target: T1, Mushroom tyrosinase (Agaricus bisporus); experiment: Inhibition of Agaricus bisporus tyrosinase assessed as reduction in diphenolase activity by measuring L-DOPA oxidation at 0.29 mM after 30 mins
[11] = target: T1, Mushroom tyrosinase (Agaricus bisporus); experiment: Inhibition of Agaricus bisporus tyrosinase assessed as reduction in diphenolase activity by measuring L-DOPA oxidation at 0.44 mM after 30 mins
[12] = target: T1, Mushroom tyrosinase (Agaricus bisporus); experiment: Inhibition of Agaricus bisporus tyrosinase assessed as reduction in diphenolase activity by measuring L-DOPA oxidation at 0.15 mM after 30 mins
[13] = target: T2, Mushroom tyrosinase; experiment: […] inhibition of Agaricus bisporus tyrosinase assessed as reduction in diphenolase activity by measuring L-DOPA oxidation at 1.6 mM after 30 mins by Lineweaver-Burk plot
[14] = target: T2, Mushroom tyrosinase; experiment: Uncompetitive inhibition of Agaricus bisporus tyrosinase assessed as reduction in diphenolase activity by measuring L-DOPA oxidation at 1.6 mM after 30 mins by Lineweaver-Burk plot
[15] = tested on: COc1ccc(/C=N/NC(N)=S)cc1; experiment: (§1) Inhibition of Agaricus bisporus tyrosinase assessed as reduction in diphenolase activity by measuring apparent Km for L-DOPA oxidation at 1.6 mM after 30 mins by Lineweaver-Burk plot
[16] = tested on: COc1cc(/C=N/NC(N)=S)ccc1O; experiment: as §1
[17] = tested on: NC(=S)N/N=C/c1ccccc1; experiment: as §1
[18] = tested on: NC(=S)N/N=C/c1ccc(O)cc1; experiment: as §1
[19] = tested on: CCOc1ccc(/C=N/NC(N)=S)cc1; experiment: as §1
[20] = tested on: NC(=S)N/N=C/c1ccc(NC(=S)N/N=C/c2ccccn2)cc1; experiment: as §1
[21] = tested on: NC(=S)N/N=C/c1ccc(Br)cc1; experiment: as §1
[22] = tested on: NC(=S)N/N=C/c1ccc(Cl)cc1; experiment: as §1
[23] = tested on: COc1ccc(/C=N/NC(N)=S)cc1; experiment: (§2) Inhibition of Agaricus bisporus tyrosinase assessed as reduction in diphenolase activity by measuring Vmax for L-DOPA oxidation at 1.6 mM after 30 mins by Lineweaver-Burk plot
[24] = tested on: COc1cc(/C=N/NC(N)=S)ccc1O; experiment: as §2
[25] = tested on: NC(=S)N/N=C/c1ccccc1; experiment: as §2
[26] = tested on: NC(=S)N/N=C/c1ccc(O)cc1; experiment: as §2
[27] = tested on: CCOc1ccc(/C=N/NC(N)=S)cc1; experiment: as §2
[28] = tested on: NC(=S)N/N=C/c1ccc(NC(=S)N/N=C/c2ccccn2)cc1; experiment: as §2
[29] = tested on: NC(=S)N/N=C/c1ccc(Br)cc1; experiment: as §2
[30] = tested on: NC(=S)N/N=C/c1ccc(Cl)cc1; experiment: as §2

Chain of Mushroom tyrosinase (Agaricus bisporus) (from UniProt O42713+Q00024+C7FF04+C7FF05) (C7FF05 whole entry, looked up): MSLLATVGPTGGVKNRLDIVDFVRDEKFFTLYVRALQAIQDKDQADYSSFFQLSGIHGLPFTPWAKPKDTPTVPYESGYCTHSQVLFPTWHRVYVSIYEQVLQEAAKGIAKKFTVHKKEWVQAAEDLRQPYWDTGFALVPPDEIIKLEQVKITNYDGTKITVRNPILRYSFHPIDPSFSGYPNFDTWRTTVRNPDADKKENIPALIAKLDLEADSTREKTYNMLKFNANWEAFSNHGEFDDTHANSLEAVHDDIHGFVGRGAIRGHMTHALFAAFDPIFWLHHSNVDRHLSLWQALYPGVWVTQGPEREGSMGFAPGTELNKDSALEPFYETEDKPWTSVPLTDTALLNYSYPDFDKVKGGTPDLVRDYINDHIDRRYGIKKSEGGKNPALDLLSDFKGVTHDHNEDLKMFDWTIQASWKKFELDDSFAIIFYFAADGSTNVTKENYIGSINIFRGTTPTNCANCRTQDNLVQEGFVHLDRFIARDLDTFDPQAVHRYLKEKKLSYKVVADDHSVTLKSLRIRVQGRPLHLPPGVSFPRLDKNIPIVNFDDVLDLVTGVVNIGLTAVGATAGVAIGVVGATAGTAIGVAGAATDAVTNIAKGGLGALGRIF
Chain of Mushroom tyrosinase (Agaricus bisporus) (from UniProt O42713+Q00024+C7FF04+C7FF05) (C7FF04 whole entry, looked up): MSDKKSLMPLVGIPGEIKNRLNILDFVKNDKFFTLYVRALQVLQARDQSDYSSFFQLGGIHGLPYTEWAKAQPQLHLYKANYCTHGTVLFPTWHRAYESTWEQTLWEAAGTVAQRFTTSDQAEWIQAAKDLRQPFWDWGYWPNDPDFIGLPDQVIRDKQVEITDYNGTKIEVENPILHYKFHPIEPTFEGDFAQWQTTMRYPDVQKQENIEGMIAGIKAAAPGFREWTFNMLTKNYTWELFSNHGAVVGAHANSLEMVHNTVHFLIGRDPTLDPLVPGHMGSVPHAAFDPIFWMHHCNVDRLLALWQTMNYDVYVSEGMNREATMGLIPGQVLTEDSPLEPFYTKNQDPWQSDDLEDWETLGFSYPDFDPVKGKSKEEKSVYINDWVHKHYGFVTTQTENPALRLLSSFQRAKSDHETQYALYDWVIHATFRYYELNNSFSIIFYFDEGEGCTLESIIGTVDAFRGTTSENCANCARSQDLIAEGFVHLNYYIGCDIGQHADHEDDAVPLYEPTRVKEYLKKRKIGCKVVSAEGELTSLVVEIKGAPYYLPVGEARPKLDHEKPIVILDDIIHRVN
Chain of Mushroom tyrosinase (Agaricus bisporus) (from UniProt O42713+Q00024+C7FF04+C7FF05) (Q00024 whole entry, looked up): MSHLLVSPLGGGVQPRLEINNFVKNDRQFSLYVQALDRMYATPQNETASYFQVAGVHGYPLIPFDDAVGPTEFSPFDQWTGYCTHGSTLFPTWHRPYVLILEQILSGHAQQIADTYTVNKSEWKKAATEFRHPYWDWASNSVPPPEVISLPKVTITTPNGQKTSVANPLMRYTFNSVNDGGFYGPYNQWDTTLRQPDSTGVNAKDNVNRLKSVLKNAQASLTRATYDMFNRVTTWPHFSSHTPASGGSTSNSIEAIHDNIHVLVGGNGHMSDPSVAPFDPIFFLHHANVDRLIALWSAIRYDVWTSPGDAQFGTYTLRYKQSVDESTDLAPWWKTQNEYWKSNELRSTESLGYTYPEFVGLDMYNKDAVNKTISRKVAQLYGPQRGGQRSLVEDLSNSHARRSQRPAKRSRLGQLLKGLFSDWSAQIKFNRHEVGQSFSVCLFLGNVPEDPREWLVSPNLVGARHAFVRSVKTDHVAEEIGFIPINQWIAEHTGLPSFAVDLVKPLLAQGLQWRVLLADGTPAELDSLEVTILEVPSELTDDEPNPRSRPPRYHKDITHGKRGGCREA
Chain of Mushroom tyrosinase (Agaricus bisporus) (from UniProt O42713+Q00024+C7FF04+C7FF05) (O42713 whole entry, looked up): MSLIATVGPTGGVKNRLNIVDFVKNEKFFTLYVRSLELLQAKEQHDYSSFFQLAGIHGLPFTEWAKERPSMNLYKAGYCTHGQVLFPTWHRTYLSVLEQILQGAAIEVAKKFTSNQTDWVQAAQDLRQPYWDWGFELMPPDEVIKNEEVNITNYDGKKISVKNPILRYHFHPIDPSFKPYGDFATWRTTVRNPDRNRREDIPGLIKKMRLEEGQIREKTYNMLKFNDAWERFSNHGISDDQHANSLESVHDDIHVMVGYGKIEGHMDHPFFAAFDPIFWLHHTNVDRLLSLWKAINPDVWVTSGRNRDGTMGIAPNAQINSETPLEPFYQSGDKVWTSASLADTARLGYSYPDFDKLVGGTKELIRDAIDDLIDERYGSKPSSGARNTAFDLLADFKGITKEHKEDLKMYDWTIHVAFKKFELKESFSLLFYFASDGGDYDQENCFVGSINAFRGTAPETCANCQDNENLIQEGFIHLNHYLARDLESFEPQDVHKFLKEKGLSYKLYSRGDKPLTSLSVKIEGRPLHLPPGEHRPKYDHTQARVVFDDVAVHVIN

Compound: COc1cc(/C=N/NC(N)=S)ccc1O
- inhibition [4]: 93.8%
- inhibition [5]: 89.2%
- Ki [2]: 60 µM
- inhibition [6]: 94.6%
- inhibition [1]: Active
- inhibition [7]: 79.2%
- IC50 [3]: 350 µM
- inhibition [8]: Active
- inhibition [9]: 92.8%
- inhibition [10]: 45.7%
- inhibition [11]: 59.3%
- inhibition [12]: 24%

Compound: NC(=S)N/N=C/c1ccc(NC(=S)N/N=C/c2ccccn2)cc1
- Ki [2]: 200 µM
- inhibition [1]: Active
- IC50 [3]: 1190 µM

Compound: NC(=S)N/N=C/c1ccccc1 [PHENYLTHIOSEMICARBAZONE]
- inhibition [1]: Active
- IC50 [3]: 820 µM
- Ki [13]: 4500 µM

Compound: Mushroom tyrosinase (Agaricus bisporus) (from UniProt O42713+Q00024+C7FF04+C7FF05)
- Km [15]: 26.3 mM
- Km [16]: 22.4 mM
- Km [17]: 0.8 mM
- Km [18]: 0.7 mM
- Km [19]: 21.7 mM
- Km [20]: 8.3 mM
- Km [21]: 0.5 mM
- Km [22]: 1.9 mM
- Vmax [23]: 34.8 mM/min
- Vmax [24]: 48.1 mM/min
- Vmax [25]: 18.9 mM/min
- Vmax [26]: 9.5 mM/min
- Vmax [27]: 38.4 mM/min
- Vmax [28]: 27.1 mM/min
- Vmax [29]: 16.6 mM/min
- Vmax [30]: 39.7 mM/min

More lines, now with the values ahead:

- inhibition [1]: Active
Compound: NC(=S)N/N=C/c1ccc(O)cc1

- Ki [2]: 60 µM
- inhibition [1]: Active
- IC50 [3]: 360 µM
Compound: CCOc1ccc(/C=N/NC(N)=S)cc1

- Ki [2]: 50 µM
- inhibition [1]: Active
- IC50 [3]: 440 µM
Compound: COc1ccc(/C=N/NC(N)=S)cc1

- Ki [14]: 600 µM
- inhibition [1]: Active
- IC50 [3]: 1420 µM
Compound: NC(=S)N/N=C/c1ccc(Br)cc1

- Ki [2]: 1300 µM
- IC50 [3]: 840 µM
Compound: NC(=S)N/N=C/c1ccc(Cl)cc1
